Reference: article PMC4370192, “Discovery of Specific Inhibitors for Intestinal E. coli β-Glucuronidase through In Silico Virtual Screening” (The Scientific World Journal, 2015)

Assays:
human βG (hβG) = molecular target: T1, human βG (hβG) (Homo sapiens, UniProt P08236); assay: In vitro βG-activity assay (pNPG hydrolysis), hβG; format: biochemical
T1 construct: histidine tag (N); made in house; host or cells: E. coli BL21 (DE3)
T1 sequence (P08236 23-651): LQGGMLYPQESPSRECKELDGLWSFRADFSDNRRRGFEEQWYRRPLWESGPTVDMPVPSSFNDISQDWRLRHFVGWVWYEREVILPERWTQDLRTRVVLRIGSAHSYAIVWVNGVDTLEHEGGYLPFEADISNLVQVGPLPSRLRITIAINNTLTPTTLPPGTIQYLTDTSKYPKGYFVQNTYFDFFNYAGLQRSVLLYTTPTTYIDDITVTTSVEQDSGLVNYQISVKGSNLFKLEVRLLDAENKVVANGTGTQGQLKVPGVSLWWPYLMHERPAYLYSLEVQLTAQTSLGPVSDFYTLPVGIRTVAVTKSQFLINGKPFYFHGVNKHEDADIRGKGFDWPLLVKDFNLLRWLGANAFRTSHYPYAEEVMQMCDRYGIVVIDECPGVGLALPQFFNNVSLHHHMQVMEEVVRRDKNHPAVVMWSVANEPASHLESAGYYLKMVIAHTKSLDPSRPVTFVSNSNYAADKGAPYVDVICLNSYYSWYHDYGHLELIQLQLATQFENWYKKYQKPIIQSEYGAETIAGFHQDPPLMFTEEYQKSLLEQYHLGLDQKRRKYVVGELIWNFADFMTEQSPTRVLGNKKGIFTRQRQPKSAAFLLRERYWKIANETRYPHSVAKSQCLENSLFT
Protocol: (§1) Plasmid pRESTB containing βG gene and a histidine tag at the N-terminus was constructed as described. Recombinant βG (human and E. coli) was produced by isopropyl β-D-thiogalactopyranoside (IPTG) induction of BL21 (DE3) bacteria. βG was purified from bacterial supernatants by affinity chromatography on nickels Sepharose 6 Fast Flow (GE Healthcare). The column was washed by phosphate-buffered saline (PBS), with 50 mM imidazole, and βG was eluted by PBS with 250 mM imidazole. The purified βG was desalted on a Sephadex G-25 column equilibrated with PBS and stored at −80°C.
(§2) The candidate compounds were purchased from SPECS (The Netherlands). Each candidate was provided as a solid power and dissolved in 100% DMSO (Sigma-Aldrich) to 10 mM as stock. Candidates were screened for their inhibition specificity of eβG versus hβG, which were conducted at pH 7.3 or pH 5.4, in triplicate, respectively. 40 μL purified βG was treated with 10 μL compound solution at 37°C for 30 min and sequentially incubated with 50 μL of pNPG (Sigma-Aldrich) at 37°C for 30 min. Reactions were quenched with 5 μL of 2 N sodium hydroxide (Sigma-Aldrich). Each reaction consisted of 3.75 ng purified βG, 50 μM compound, and 5 mM pNPG in PBS containing 10% DMSO and 0.05% BSA (Sigma-Aldrich). βG-activities were measured by color development of pNP detected on a microplate reader at OD 405 nm.
(Table S1) The candidate compounds were purchased from SPECS (Zoetermeer, The Netherlands). Each candidate was rovided as a solid power and dissolved in 100% DMSO (Sigma-Aldrich, MO, USA) to 10 mM as stock. Candidates were screening for their inhibition specificity of eβG verse hβG, which were conducted at pH 7.3 or pH 5.4 in triplicate, respectively. 40 µL purified βG was treated with 10 µL compound solution at 37 °C for 30 min, and sequentially incubated with 50 µL of pNPG (Sigma-Aldrich) at 37 °C for 30 min. Reactions were quenched with 5 µL of 2 N sodium hydroxide (Sigma-Aldrich). Each reaction consisted of 3.75 ng purified βG, 50 µM compound, and 5 mM pNPG in PBS containing 10% DMSO and 0.05% BSA (Sigma-Aldrich). βG-activities were measured by color development of pNP detected on a microplate reader at OD 405 nm. […]
candidate compounds were purchased from SPECS (Zoetermeer, The Netherlands). Each candidate was provided as a solid power and dissolved in 100% DMSO (Sigma-Aldrich, MO, USA) to 10 mM as stock. Candidates were screening for their inhibition specificity of eβG verse hβG, which were conducted at pH 7.3 or pH 5.4 in triplicate, respectively. 40 μL purified βG was treated with 10 μL compound solution at 37 °C for 30 min, and sequentially incubated with 50 μL of pNPG (Sigma-Aldrich) at 37 °C for 30 min. Reactions were quenched with 5 μL of 2 N sodium hydroxide (Sigma-Aldrich). Each reaction consisted of 3.75 ng purified βG, 50 μM compound, and 5 mM pNPG in PBS containing 10% DMSO and 0.05% BSA (Sigma-Aldrich). βG-activities were measured by color development of pNP detected on a microplate reader at OD 405 nm.

[1] = molecular target: T2, E. coli β-glucuronidase (eβG) (Escherichia coli, UniProt P05804); assay: In vitro βG-activity assay (pNPG hydrolysis), eβG; format: biochemical
T2 construct: histidine tag (N); made in house; host or cells: E. coli BL21 (DE3)
Protocol: as §1
as §2, with “nm. […] For IC50 determination, compounds at various concentrations (100 μM to 0.001 μM) were added.” for “nm.”
Supplementary file 740815.f1.pdf: Fifty-nine candidate compounds were acquired from the initial virtually screening which was designed to target the bacterial loop of eβG and its active site. The docking energy scores of 59 candidate compounds measured by the DOCK program are -43 to -55 kcal/mol. (Table S1) The candidate compounds were purchased from SPECS (Zoetermeer, The Netherlands). Each candidate was rovided as a solid power and dissolved in 100% DMSO (Sigma-Aldrich, MO, USA) to 10 mM as stock. Candidates were screening for their inhibition specificity of eβG verse hβG, which were conducted at pH 7.3 or pH 5.4 in triplicate, respectively. 40 µL purified βG was treated with 10 µL compound solution at 37 °C for 30 min, and sequentially incubated with 50 µL of pNPG (Sigma-Aldrich) at 37 °C for 30 min. Reactions were quenched with 5 µL of 2 N sodium hydroxide (Sigma-Aldrich). Each reaction consisted of 3.75 ng purified βG, 50 µM compound, and 5 mM pNPG in PBS containing 10% DMSO and 0.05% BSA (Sigma-Aldrich). βG-activities were measured by color development of pNP detected on a microplate reader at OD 405 nm. […] Especially, the inhibiting ability against eβG activity was >95% in 7 candidates of eβG specific inhibitors (Table S1).
Fifty-nine candidate compounds were acquired from the initial virtually screening which was designed to target the bacterial loop of eβG and its active site. The docking energy scores of 59 candidate compounds measured by the DOCK program are -43 to -55 kcal/mol. (Table S1) The candidate compounds were purchased from SPECS (Zoetermeer, The Netherlands). Each candidate was provided as a solid power and dissolved in 100% DMSO (Sigma-Aldrich, MO, USA) to 10 mM as stock. Candidates were screening for their inhibition specificity of eβG verse hβG, which were conducted at pH 7.3 or pH 5.4 in triplicate, respectively. 40 μL purified βG was treated with 10 μL compound solution at 37 °C for 30 min, and sequentially incubated with 50 μL of pNPG (Sigma-Aldrich) at 37 °C for 30 min. Reactions were quenched with 5 μL of 2 N sodium hydroxide (Sigma-Aldrich). Each reaction consisted of 3.75 ng purified βG, 50 μM compound, and 5 mM pNPG in PBS containing 10% DMSO and 0.05% BSA (Sigma-Aldrich). βG-activities were measured by color development of pNP detected on a microplate reader at OD 405 nm. […]
percent of βG activity compared with the untreated control.
Especially, the inhibiting ability against eβG activity was >95% in 7 candidates of eβG specific inhibitors (Table S1).
Table S1. […]

[2] = pH 5.4, percent of activity vs untreated control
[3] = 50 μM compound, pH 7.3, percent of activity vs untreated control
[4] = read-out: inhibition of eβG activity

T2 sequence (P05804 whole entry): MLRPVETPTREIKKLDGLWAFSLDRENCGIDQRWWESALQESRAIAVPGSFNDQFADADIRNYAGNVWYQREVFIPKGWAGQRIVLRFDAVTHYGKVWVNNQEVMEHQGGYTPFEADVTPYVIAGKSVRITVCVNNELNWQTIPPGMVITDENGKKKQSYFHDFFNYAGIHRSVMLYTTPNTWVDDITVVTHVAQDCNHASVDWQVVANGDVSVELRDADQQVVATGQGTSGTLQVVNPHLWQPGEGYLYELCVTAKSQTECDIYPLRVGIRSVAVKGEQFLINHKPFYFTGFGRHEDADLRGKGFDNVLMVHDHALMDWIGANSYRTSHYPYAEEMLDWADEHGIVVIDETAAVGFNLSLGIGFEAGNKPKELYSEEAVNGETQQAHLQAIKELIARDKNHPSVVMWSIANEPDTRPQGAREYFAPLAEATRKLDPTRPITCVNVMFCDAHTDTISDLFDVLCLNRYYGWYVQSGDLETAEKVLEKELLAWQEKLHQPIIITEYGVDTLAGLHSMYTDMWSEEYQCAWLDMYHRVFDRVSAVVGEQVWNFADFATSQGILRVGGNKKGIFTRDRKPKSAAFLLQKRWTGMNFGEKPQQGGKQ

Structure (SMILES)	hβG activity (%) with 50 μM compound (human βG (hβG); [2]) [%]	eβG activity (%) with 50 μM compound [1, 3] [%]	also measured
CC1(C)CC(O)C(C(O)c2cccc([N+](=O)[O-])c2)C(C)(C)N1 (centres unmarked) [Compound 4021]	103.06	28.56	–
O=C(O)C1CC=CCC1C(=O)Nc1ccc2ccccc2c1 (centres unmarked) [Compound 4043]	81.24	32.98	–
O=C1C=C(Nc2cccc3cc(S(=O)(=O)O)ccc23)c2ccccc2C1=O [Compound 4277]	115.21	44.37	–
O=C(O)c1ccc(NS(=O)(=O)c2ccc(Br)cc2)cc1O [Compound 4465]	99.50	10.04	–
Cc1cc(NS(=O)(=O)c2ccc(NC(=O)c3cc(Cl)ccc3[N+](=O)[O-])cc2)nc(C)n1 [Compound 5003]	105.54	17.02	–
N#Cc1cc2[nH]c(=O)c(=O)[nH]c2cc1[N+](=O)[O-] [Compound 5012]	108.51	14.96	–
Cn1c(O)c(C=NC(Cc2c[nH]c3ccccc23)C(=O)O)c(=O)n(C)c1=O (centres unmarked) [Compound 5033]	116.12	9.33	–
O=C(O)C1CC=CCC1C(=O)Nc1ccc(Br)c2cccnc12 (centres unmarked) [Compound 5244]	44.38	26.21	–
CC1=C(C)CC(C(=O)Nc2c(C)cccc2C)C(C(=O)O)C1 (centres unmarked) [Compound 5259]	106.20	34.05	–
N/C(=N\c1nc2c(c(=O)[nH]1)CCC2)Nc1ccccc1 [Compound 5905]	104.96	24.93	–
CC1=NN(c2ccc(Cl)cc2)C(=O)/C1=C\N1CCN(C)CC1 [Compound 6003]	93.06	9.76	–
N=c1c2sc3nc4ccccc4n3c2ncn1N [Compound 6015]	72.07	10.40	–
O=C(NC(NCc1ccco1)C(Cl)(Cl)Cl)c1ccc(Br)cc1 (centres unmarked) [Compound 6019]	104.96	33.83	–
COc1cc(C(=O)N2CCNCC2)cc(OC)c1OC [Compound 6368]	116.03	44.87	–
O=C(Nc1ccc(S(=O)(=O)N2CCCC2)cc1)c1[nH]ncc1[N+](=O)[O-] [Compound 6843]	108.76	27.49	–
COc1ccc(N2C(=O)CC(NC3CCCCNC3=O)C2=O)cc1 (centres unmarked) [Compound 7007]	105.79	44.30	–
N=C1C(c2nc3ccccc3c(=O)[nH]2)=C(O)CN1c1cccc(Cl)c1 [Compound 7036]	95.45	6.70	–
CC(=O)Nc1ccc(S(=O)(=O)Oc2ccc([N+](=O)[O-])cc2)cc1 [Compound 7100]	112.56	20.58	–
CC(C)(C)c1ccc(S(=O)(=O)/N=C2\C=CC(=O)c3ccccc32)cc1 [Compound 7145]	–	–	effect on hβG activity (human βG (hβG); 50 μM compound): does not hamper hβG activity; activity at 50 µM (human βG (hβG); 50 μM compound, pH 5.4, percent of activity vs untreated control): 120%; activity at 50 µM [1, 3]: 1%; inhibition at 10 µM [1, 4]: 55%; inhibition at 50 µM [1, 4]: > 95%; IC50 ([1]; recombinant eβG, pNPG substrate, pH 7.3): 31.6 µM
COc1ccc(S(=O)(=O)NCCN2CCOCC2)c2ccccc12 [Compound 7670]	93.31	43.16	–
CN(C)CCCNS(=O)(=O)c1ccc2c3c(cccc13)C(=O)N2 [Compound 8010]	98.84	23.58	–
NC1=C2N=C(c3ccc([N+](=O)[O-])cc3)NN2NN1 [Compound 8013a]	100.33	60.40	–
O=[N+]([O-])C12CNCC([N+](=O)[O-])(CNC1)C2 [Compound 8013b]	93.72	32.91	–
